Experimental data as given in patent US10590109B2, “Heterocyclic compounds used as FGFR inhibitors” (Nanjing InnoCare Pharma Tech Co., Ltd., priority 2016, dated 2020).
pIC50: −log10 of the molar value.

Experiments:
[1] = molecular target: human recombinant FGFR4 catalytic structural domain protein (Homo sapiens (Human), UniProt P22455); assay: FGFR4 activity inhibition test (HTRF kinase assay); format: biochemical; conditions: 90 μM ATP
Description: FGFR4 Activity Inhibition Test
The influence of the compound according to the present invention on the activity of fibroblast growth factor receptor 4 (FGFR4) was evaluated by an in vitro kinase assay experiment.
(§1) The experimental method is summarized as follows:
The in vitro activity of FGFR4 was determined by assaying the phosphorylation level of the substrate in the kinase reaction, by means of an HTRF kinase assay kit.
If the IC50 value of the compound was very low, the initial concentration of the compound could be reduced.
After 60 min, the enzyme reaction was terminated by EDTA in the assay solution, and the phosphorylated products were identified by both the Eu^3+ labeled cage-shaped antibody (donor) and the streptavidin labeled XL665 antibody (receptor) at the same time. […] The inhibition percentage of the compound against FGFR4 activity could be calculated with the following formula: Inhibition percentage=100−100*(signalcompound−signalnegative control)/(signalpositive control−signalnegative control)
(§2) The IC50 value of the compound was calculated by the following formula, from 10 concentration points, with XLfit (ID Business Solutions Ltd., UK): Y=Bottom+(Top−Bottom)/(1+10^((Log IC50−X)*slope factor)) Where, Y is the inhibition percentage, Bottom is the bottom plateau of the curve (the bottom plateau of the S-type curve), Top is the top plateau of the curve (the top plateau of the S-type curve), and X is the log value of the compound concentration to be measured.

[2] = molecular target: human recombinant FGFR3 catalytic structural domain protein (Homo sapiens (Human), UniProt P22607); assay: FGFR3 activity inhibition test (HTRF kinase assay); format: biochemical; conditions: 90 μM ATP
Sequence of human recombinant FGFR3 catalytic structural domain protein (P22607 399-806): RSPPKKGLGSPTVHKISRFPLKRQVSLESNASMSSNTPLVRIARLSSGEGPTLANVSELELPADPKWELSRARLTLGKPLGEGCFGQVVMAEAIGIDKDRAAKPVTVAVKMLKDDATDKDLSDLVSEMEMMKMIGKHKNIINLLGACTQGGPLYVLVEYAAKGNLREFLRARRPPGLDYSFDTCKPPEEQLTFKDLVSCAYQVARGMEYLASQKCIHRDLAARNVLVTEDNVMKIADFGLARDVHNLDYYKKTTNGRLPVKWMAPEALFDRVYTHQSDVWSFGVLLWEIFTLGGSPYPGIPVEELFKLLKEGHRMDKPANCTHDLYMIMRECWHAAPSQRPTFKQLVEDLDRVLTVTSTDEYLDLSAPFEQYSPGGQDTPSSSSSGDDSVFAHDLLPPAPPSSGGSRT
Description: FGFR3 Activity Inhibition Test
The influence of the compound according to the present invention on the activity of fibroblast growth factor receptor 3 (FGFR3) was evaluated by an in vitro kinase assay experiment.
as §1
The in vitro activity of FGFR3 was determined by assaying the phosphorylation level of the substrate in the kinase reaction, by means of an HTRF kinase assay kit. The reaction buffer comprised the following components: 5-fold diluted Enzymatic buffer/kinase 5× (Cisbio, Catalog number 62EZBFDD) (main ingredient: 50 mM HEPES, pH 7.0), 5 mM MgCl2, 1 mM DTT; the human recombinant FGFR3 catalytic structural domain protein (amino acids 399-806) was commercially available from Sino Biological Inc., diluted with the reaction buffer to a 0.3 ng/μL kinase solution; the substrate reaction solution comprised a biotin labeled tyrosine kinase substrate diluted with the reaction buffer to 1000 nM (Cisbio, catalog number 62TK0PEC), and 90 μM ATP, and the assay solution comprised an Eu^3+ labeled cage-shaped antibody (Cisbio, Catalog number 61T66KLB) diluted with the assay buffer (Cisbio, Catalog number 62SDBRDF) to 0.125 ng/μL, and 62.5 nM streptavidin labeled XL665 (Cisbio, Catalog number 610SAXLB).
The compound was dissolved and diluted in 100% DMSO to 100 μM, then 4-fold-series diluted with DMSO to a minimum concentration of 0.0061 μM, and each concentration point was then 40-fold diluted with the reaction buffer. If the IC50 value of the compound was very low, the initial concentration of the compound could be reduced.
4 μL of a compound solution and 2 μL of an FGFR3 kinase solution were added into a 384 well assay plate (Thermo, Catalog number 264706), mixed uniformly and then incubated for 15 min at room temperature; subsequently, 4 μL of the substrate reaction solution was added therein, and the reaction mixture was incubated for 60 min at room temperature; and then 10 μL of an assay solution of an equal volume to the reaction was added therein and mixed uniformly, followed by placement at room temperature. After 60 min, the enzyme reaction was terminated by EDTA in the assay solution, and the phosphorylated products were identified by both the Eu^3+ labeled cage-shaped antibody (donor) and the streptavidin labeled XL665 antibody (receptor) at the same time. After the excitation with laser, the donors and receptors that were close to each other experienced energy resonance transfer, and the energy transferred from the donor (620 nm) to the receptor (665 nm) could be detected with Envision. The ratio of 665/620 is in positive correlation to the phosphorylation degree of the substrate, thereby to detect the FGFR3 kinase activity. […] The inhibition percentage of the compound against […] activity could be calculated with the following formula: Inhibition percentage=100−100*(signalcompound−signalnegative control)/(signalpositive control−signalnegative control)
as §2

Hep3B cells = assay: Hep3B cell proliferation inhibition test (CellTiter-Glo); format: cell-based; conditions: Homo sapiens, 72 h, CTG
Description: Hep3B Cell Proliferation Inhibition Test
The influence of the compound according to the present invention on Hep3B cell proliferation was evaluated by a luminescence cell viability test.
as §1
A CellTilter-Glo (CTG) assay kit was used to detect an indicator ATP of active cellular metabolism by means of a unique stable luciferase, and the luminous signal produced in the test was in direct proportion to the count of active cells in the medium, thereby to detect the cell proliferation of Hep3B.
A CellTilter-Glo agent (Promega, G7572) was comprised of a CellTilter-Glo lyophilized powder and a CellTilter-Glo buffer, and the lyophilized powder was dissolved into the buffer in use.
Hep3B cells (ATCC, HB-8064) (cell source: Shanghai Academy of Life Sciences, Chinese Academy of Sciences) were cultured in a DMEM complete medium (Thermofisher, 11995073) containing a 10% FBS (GBICO, 10099-141) and 100 units/ml mycillin mixed solution (Thermofisher, 15140122). When the cells coverage reached 80-90% in the culture vessel, after the cells were digested and blown about with 0.25% pancreatin (containing EDTA) (Thermofisher, 25200056), they were planted in a white 384 well plate (Thermofisher, 164610), with 1000 cells in each well (27 μl of a DMEM complete medium), and then the 384 well plate was placed into an incubator at 37° C. and 5% CO2 and cultured overnight (18-20 h). The compound was dissolved and diluted in 100% DMSO to 100 μM, then 4-fold-series diluted with DMSO to a minimum concentration of 0.0061 μM, and each concentration point was 50-fold diluted with the FBS-free DMEM medium. If the IC50 value of the compound was very low, the initial concentration of the compound could be reduced. […] This 384 well plate was placed into an incubator at 37° C. and 5% CO2 for further culture, taken out after 72 h, and stood at room temperature for 30 min. The CTG agent was also taken out and balanced to room temperature. 15 μl of the CTG agent was added into each well, and placed onto a shaker to be gently shaken for 3 min to ensure sufficient cell lysis. After 10 min of standing to allow the luminescence signal to be stable, the luminescence signal was read with EnVision (Perkin Elmer).
The inhibition percentage of the compound against Hep3B cell proliferation could be calculated with the following formula: Inhibition percentage=100−100*(signalcompound−signalnegative control)/(signalpositive control−signalnegative control)
The IC50 value of the compound was calculated by the following formula, from 8 concentration points, with XLfit (ID Business Solutions Ltd., UK): Y=Bottom+(Top−Bottom)/(1+10^((Log IC50−X)*slope factor))
Where, Y is the inhibition percentage, Bottom is the bottom plateau of the curve (the bottom plateau of the S-type curve), Top is the top plateau of the curve (the top plateau of the S-type curve), and X is the log value of the compound concentration to be measured.

Sequence of human recombinant FGFR4 catalytic structural domain protein (P22455 460-802): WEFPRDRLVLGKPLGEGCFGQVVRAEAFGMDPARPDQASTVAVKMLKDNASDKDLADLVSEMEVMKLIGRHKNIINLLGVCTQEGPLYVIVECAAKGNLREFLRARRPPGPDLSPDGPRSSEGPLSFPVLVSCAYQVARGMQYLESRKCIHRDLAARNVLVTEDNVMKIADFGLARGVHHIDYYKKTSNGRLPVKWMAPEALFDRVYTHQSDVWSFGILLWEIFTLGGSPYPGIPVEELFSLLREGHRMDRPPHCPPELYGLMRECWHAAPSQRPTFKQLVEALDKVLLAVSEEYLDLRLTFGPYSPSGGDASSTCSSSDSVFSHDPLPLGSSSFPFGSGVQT

pIC50 [1]: > 8.00 | pIC50 [2]: < 6.00 | pIC50 (Hep3B cells): > 7.30
Structure (SMILES): COC[C@@H](C)Oc1cc(NC(=O)N(C)c2ccc(CN3CCOCC3=O)c(C=O)n2)ncc1C#N [Compound 14, (R)-3-(5-cyano-4-((1-methoxyprop-2-yl)oxo)pyrid-2-yl)-1-(6-formyl-5-((3-carbonylmorpholino)methyl)pyrid-2-yl)-1-methylurea]
